How the values were obtained:
HDAC10 [1] = target: T1, HDAC10 (Homo sapiens, UniProt Q969S8); test: ligand displacement TR-FRET assay, HDAC10; assay type: binding; parameters: host or cells: Sf21 insect cells (baculovirus); conditions: ligand-displacement FRET assay; read-out: HDAC10 pIC50 (converted)
T1 sequence (Q969S8 1-669): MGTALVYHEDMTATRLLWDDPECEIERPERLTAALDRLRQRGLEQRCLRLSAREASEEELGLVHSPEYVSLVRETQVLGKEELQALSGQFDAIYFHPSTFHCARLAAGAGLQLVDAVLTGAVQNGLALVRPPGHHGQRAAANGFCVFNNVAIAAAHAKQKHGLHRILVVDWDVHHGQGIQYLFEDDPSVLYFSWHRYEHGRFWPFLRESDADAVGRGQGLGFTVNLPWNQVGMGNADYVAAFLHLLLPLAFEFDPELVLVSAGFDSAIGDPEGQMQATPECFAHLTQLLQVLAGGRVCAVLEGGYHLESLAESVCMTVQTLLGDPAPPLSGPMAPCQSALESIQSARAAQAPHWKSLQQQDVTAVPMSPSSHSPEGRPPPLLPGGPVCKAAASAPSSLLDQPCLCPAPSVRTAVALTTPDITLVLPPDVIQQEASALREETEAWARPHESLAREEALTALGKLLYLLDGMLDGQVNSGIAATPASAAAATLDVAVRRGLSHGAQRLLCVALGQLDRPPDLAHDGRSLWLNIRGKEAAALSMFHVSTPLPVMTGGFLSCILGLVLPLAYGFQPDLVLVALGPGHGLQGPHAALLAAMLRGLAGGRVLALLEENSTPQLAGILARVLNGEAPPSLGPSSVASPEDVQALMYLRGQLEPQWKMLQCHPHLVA
Method: Expression and purification of TwinStrepII‐GST‐HDAC10: A synthetic gene encoding TwinStrepII‐GST‐HDAC10 (human) was ordered from GeneArt (Thermo Fischer Scientific) and subcloned into the pFastBac1 vector. The resulting construct was used for transposition in E. coli DH10EMBacY cells. The isolated bacmid DNA was then used to generate the recombinant baculovirus. For protein expression, 10 mL of baculovirus was added to 1 L of Sf21 cells at a density of 1×10^6 cells/mL. The infected Sf21 cells were grown for 72 h in Sf‐900 III SFM medium (Thermo Fischer Scientific) at 27 °C. Cells were harvested by centrifugation and re‐suspended in running buffer (100 mM Tris pH 8.0, 150 mM NaCl, 1 mM EDTA and 1 mM DTT) supplemented with 10 mM MgCl2, benzonase and cOmplete protease inhibitors (Merck). […] The clarified lysate was then loaded onto a 5 mL Strep‐Tactin Superflow high capacity column (IBA) pre‐equilibrated in running buffer. After sample loading and washing, the TwinStrepII‐GST‐HDAC10 protein was eluted in running buffer supplemented with 5 mM desthiobiotin (IBA). The elution fractions containing TwinStrepII‐GST‐HDAC10 were pooled and concentrated before being injected onto a HiLoad 16/600 Superdex 200 pg size exclusion chromatography column (GE Healthcare) pre‐equilibrated with 25 mM HEPES/NaCl pH 7.5, 150 mM NaCl, 0.5 mM EDTA, 1 mM DTT and 10 % glycerol. Samples were eluted from the size exclusion chromatography column in the same buffer, flash‐frozen in liquid N2 and stored at −80 °C.
The TR‐FRET measurements of the monohydroxamic acids in this manuscript were measured in the original assay format, which is described directly below this paragraph. The TR‐FRET measurements of the dihydroxamic acids in this manuscript were measured in the modified format, which is described two paragraphs below this one.
The concentrations of reagents in 10 μL final assay volume were 3 nM GST‐HDAC10, 30 nM “Tubastatin‐Alexa647‐Tracer” and 0.5 nM Eu‐anti‐GST. GST‐HDAC10 and LanthaScreen™ Eu‐anti‐GST Antibody were purchased from Life Technologies, and the Tubastatin‐Alexa647‐Tracer was synthesized in‐house as previously described.19 An 11‐fold 1 : 3‐serial dilution of compounds starting at 2 mM was prepared in 384 well pp‐plates (Greiner) from 10 mM stocks in DMSO and 1 μL was transferred to assay plates. Nine μL of the reagent‐mix was added and the plate was incubated for 1 h at RT before TR‐FRET was measured in an EnVision™ plate reader equipped with a TR‐FRET Laser module. […] Percent inhibition was calculated for each well from negative control wells containing 2 % DMSO and positive control wells containing 20 μM SAHA. The resulting dose‐response curves were fitted in ActivityBase (IDBS) using a four‐parameter logistic model and pIC50‐values were calculated.
After drug dosing to the premixed assay reagents in buffer, plates were shaken (800 rpm orbital shaker, 30 s), centrifuged (300 g, 1 min) and incubated at room temperature in the dark for 60 min. TR‐FRET was measured with a CLARIOstar (BMG Labtech) plate reader, equipped with TR‐FRET filters.

HDAC8 = target: T2, HDAC8 (Homo sapiens, UniProt Q9BY41); test: HDAC-Glo I/II enzymatic assay, HDAC8; assay type: biochemical; conditions: read-out: HDAC8 pIC50 (converted)
T2 construct: purchased BPS Bioscience 50008
T2 sequence (Q9BY41 1-377): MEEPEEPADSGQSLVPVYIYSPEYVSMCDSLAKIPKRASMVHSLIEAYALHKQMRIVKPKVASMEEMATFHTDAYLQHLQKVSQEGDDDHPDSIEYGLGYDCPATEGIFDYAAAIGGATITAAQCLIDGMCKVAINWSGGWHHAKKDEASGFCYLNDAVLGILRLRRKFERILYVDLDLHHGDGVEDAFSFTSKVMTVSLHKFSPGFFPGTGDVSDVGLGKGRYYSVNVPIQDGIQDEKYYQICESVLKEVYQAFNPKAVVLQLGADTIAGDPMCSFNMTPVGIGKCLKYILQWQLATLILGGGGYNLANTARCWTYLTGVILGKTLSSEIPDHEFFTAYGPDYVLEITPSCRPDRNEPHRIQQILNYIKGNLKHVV
Method: Inhibitors were tested at eight serial dilutions in triplicate ranging from 50 μM–86,7 pM (HDAC6) or 100 μM–8,67 nM (HDAC1,2,3,8). Drug dosing was performed from 10 mM and 0.1 mM DMSO stock solutions with a D300e Digital Dispenser (Tecan). HDACs (7 ng/mL for HDAC1, 10 ng/mL for HDAC2, 200 ng/mL for HDAC3/Ncor2 complex, 100 ng/mL for HDAC6, 200 ng/mL for HDAC8) and inhibitors were incubated together for 30 min at room temperature. After addition of the HDAC‐Glo™ I/II reagent, plates were shaken (800 rpm orbital shaker, 30 s), centrifuged (300 g, 1 min) and incubated at room temperature for 30 min. Luminescence was detected with a CLARIOstar (BMG Labtech) plate reader.

[2] = tested on: lysosomal staining with LysoTracker DND‐99 (HDAC10 knockdown phenotype); test: LysoTracker assay in SK-N-BE(2)C cells; assay type: cell-based; conditions: 10 μM inhibitor, normalized to DMSO
Method: LysoTracker assay: SK‐N‐BE(2)‐C cells were seeded into 6‐well dishes at a density of 1.5×10^5 cells per well. Cells were treated with inhibitor over night at concentrations indicated in the figure and stained the following day for 1 h with 50 nM LysoTracker® Red DND‐99 in medium under standard cell culture conditions. Cells were washed with ice‐cold RPMI without phenol‐red and trypsinized for 3 min at 37 °C. Detached cells were centrifuged for 3 min at 8600 g and re‐suspended in ice‐cold RPMI without phenol red. Mean LysoTracker fluorescence was quantified on a BD FACSCanto II platform using the PE filter setting. Data were normalized to mean LysoTracker fluorescence of solvent (DMSO) treated cells.

[3] = tested on: SK‐N‐BE(2)C neuroblastoma cell line; test: SK-N-BE(2)C cell viability assay (CellTiter-Blue); assay type: cell-based; conditions: SK-N-BE(2)C cells
Method: Cell viability assay: SK‐N‐BE(2)C cells were cultured in Dulbecco's modified Eagle medium (DMEM, Lonza, Basel, Switzerland) supplemented with 10 % fetal calf serum (FCS, Sigma‐Aldrich) and 1 % non‐essential amino acids (NEAA, Lonza). SK‐N‐BE(2)C cells were seeded from a confluent flask into 96‐well plates in 100 μL full growth medium at a density of 5×10^3 cells per well the day before treatment. Cells were treated in triplicates with drug concentrations as indicated in the respective figure. Drugs were dosed from 50 mM and 200 mM stock solutions with a D300e Digital Dispenser (Tecan) and DMSO concentrations were normalized to 0.2 % for all wells. Plates were shaken (1000 rpm orbital shaker, 30 s) and incubated under standard culture conditions for 72 h. To each well 20 μL of CellTiter‐Blue® reagent (G8081, Promega) was added, plates were shaken (600 rpm orbital shaker, 20 s) and incubated at 37 °C overnight. Fluorescence was measured (extinction/emission: 570 nm/590 nm) on a FluoStar Optima (BMG Labtech) plate reader. Cell viability was normalized with untreated positive controls and cell‐free negative controls. IC50‐values were calculated as described in the BRET assay.

[4] = tested on: acetylation of the HDAC8 substrate SMC3; test: Western blot of SMC3 acetylation in SK-N-BE(2)C cells; assay type: cell-based; conditions: relative to solvent control
Method: Western blot analysis of SMC3, tubulin and histone H3 acetylation: For the analysis of protein acetylation, 1.5–2×10^6 SK‐N‐BE(2)‐C cells were seeded per 10 cm dish and allowed to adhere overnight. Cells were treated for 18 h (Figure 4B) or 6 h (Figure 4E) with inhibitors at concentrations indicated in the respective figure. […] Cell debris was removed by centrifugation (15 000 g for 10 min at 12 °C).

HDAC10 [5] = target: T1, HDAC10; parameters: host or cells: Sf21 insect cells (baculovirus); method as in PMID 30964290; conditions: previously shown; cited from earlier work
HDAC10 [6] = target: T1, HDAC10; test: cellular BRET HDAC10 target engagement assay (stably transfected HeLa cells); assay type: cell-based; parameters: host or cells: HeLa (stably transfected mono-clones); conditions: cellular target engagement, one experiment in triplicate; read-out: HDAC10 BRET pIC50 (converted)
Method: Production of mono‐clones stably expressing HDAC‐nanoBRET proteins: Plasmids expressing a fusion of HDAC10 with nanoluciferase were obtained from Promega (N2170). HeLa cells (0.75×10^6) were seeded in a 6 cm dish and after 24 h were transfected with a mix of 10 μg plasmid and 3 μL Fugene in 200 μL OptiMEM. In detail, cells were washed with pre‐warmed OptiMEM and subsequently overlaid with 2.3 mL of OptiMEM. After addition of 200 μL transfection mix, cells were incubated for 24 h at 37 °C. Cells were than trypsinized and 0.2×10^5 cells were seeded into both 10 cm and 15 cm dishes. Transformants were selected with 1 mg/mL G‐418 for 6 days with a media change after 3 days. Clones which formed colonies were picked by rinsing plates with 3 mL Trypsin/EDTA (Sigma T3924) followed by a 2 min incubation with 300 μL Trypsin/EDTA at 37 °C. Colonies were then loosened and aspirated with a 10 μL filter tip and transferred to 24‐well plates containing selection medium.
Culture of stable BRET cell lines: Stably transfected HeLa cells were cultivated under sterile conditions in polystyrene cell culture flasks (658170, Greiner) at 37 °C and 5 % CO2 in a humidified atmosphere. DMEM growth medium (D6049, Sigma) was supplemented with 10 % FCS (FBS‐12A, Capricorn Scientific), 1 % penicillin‐streptomycin (P4333, Sigma) and 1 mg/mL Geneticin (2039.3, Roth). At confluency, cells were passaged by removing old medium, DPBS (14190‐094, gibco) wash, trypsination (T4049, Sigma) and seeding in fresh growth medium.
BRET assay: The intracellular target engagement assay on HDAC10 was performed as described by the kit manufacturer in a 96‐well plate (3600, Corning) format with 1.9×10^4 cells per well and a tracer concentration of 0.3 μM. […] Drug dosing was performed from 10 mM and 1 mM DMSO stock solutions with a D300e Digital Dispenser (Tecan), DMSO concentrations were normalized to 0.5 % for all wells. Assay plates were incubated at 37 °C for 2 h followed by measurement of 450 nm and 650 nm luminescence (80 nm bandwidth) at room temperature with a CLARIOstar (BMG Labtech) plate reader 2 min after NanoLuc substrate addition.

IC50 (HDAC10 [1])	IC50 (HDAC8)	SMILES	further results
1620 nM	49 nM	COc1ccc(Cn2cc(CN(C)C)c3ccc(C(=O)NO)cc32)cc1 [Compound 2b]	
661 nM	43.7 nM	COc1ccc(Cc2cn(CCN(C)C)c3ccc(C(=O)NO)cc23)cc1 [Compound 2e]	
		CN1CCc2c(c3ccccc3n2Cc2ccc(C(=O)NO)cc2)C1 [Compound 1c, reference compound]	lysosomal staining with LysoTracker DND-99 (HDAC10 knockdown phenotype) [2]: effective; cytotoxicity (extent of effect) ([3]; Figure S1): fully cytotoxic
19100 nM	20.9 nM	COc1ccc(Cn2ncc3ccc(C(=O)NO)cc32)cc1 [Compound 2f]	
6920 nM	29.5 nM	COc1ccc(Cn2nc(CN(C)C)c3ccc(C(=O)NO)cc32)cc1 [Compound 2g]	acetylation of SMC3 (HDAC8 substrate), Western blot [4]: increased acetylation
234 nM	389 nM	O=C(NO)c1ccc(Cn2ncc3ccccc32)cc1 [Compound 1f]	
3160 nM	69.2 nM	COc1ccc(Cc2c[nH]c3ccc(C(=O)NO)cc23)cc1 [Compound 2d]	
5.25 nM	955 nM	CN(C)Cc1cn(Cc2ccc(C(=O)NO)cc2)c2ccccc12 [Compound 1b]	selectivity for HDAC10 over HDACs 1, 2, and 3 (HDAC10 [5]): > 100 fold
		COc1ccc(Cn2ccc3ccc(C(=O)NO)cc32)cc1 [Compound 2a]	acetylation of SMC3 (HDAC8 substrate), Western blot [4]: increased acetylation; cytotoxicity (extent of effect) ([3]; Figure S1): not fully cy totoxic; Emax ([3]; Figure S1, read-out: maximum effect, cell growth inhibition): 62%; EC50 ([3]; read-out: EC50 dose-response curve (Figure S1)): 8100 nM
6460 nM	141 nM	COc1ccc(Cn2c3c(c4ccc(C(=O)NO)cc42)CN(C)CC3)cc1 [Compound 2c]	
66.1 nM	380 nM	O=C(NO)c1ccc(Cn2ccc3ccccc32)cc1 [Compound 1a]	
27.5 nM		O=C(NO)c1ccc(Cc2c[nH]c3ccccc23)cc1 [Compound 1d, 4-((1H-indol-3-yl)methyl)-N-hydroxyb en zamide]	IC50 (HDAC10 [6]): 39.8 nM

From article PMC7335359, “Design and Synthesis of Dihydroxamic Acids as HDAC6/8/10 Inhibitors” (Chemmedchem, 2020)
